Like-named read-outs stand apart in the source and are kept apart here.
How the values were obtained:
[1] = biological target: T1, calf intestinal adenosine deaminase (Bos taurus, UniProt P56658); assay: Metabolism by adenosine deaminase (spectrophotometric deamination, Lineweaver-Burke); assay type: biochemical
T1 sequence (P56658 1-363): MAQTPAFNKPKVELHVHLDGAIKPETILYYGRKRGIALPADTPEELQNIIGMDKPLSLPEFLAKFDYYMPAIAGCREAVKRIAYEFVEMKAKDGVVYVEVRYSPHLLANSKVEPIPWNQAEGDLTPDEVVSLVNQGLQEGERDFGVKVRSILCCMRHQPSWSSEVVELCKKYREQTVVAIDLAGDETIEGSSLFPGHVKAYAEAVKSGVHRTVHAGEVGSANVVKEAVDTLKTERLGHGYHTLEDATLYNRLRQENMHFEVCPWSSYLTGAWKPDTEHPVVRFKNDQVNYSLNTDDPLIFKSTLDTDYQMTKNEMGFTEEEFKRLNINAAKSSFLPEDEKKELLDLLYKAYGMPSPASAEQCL
Description: ^1 The indicated nucleosides at concentrations from 5-200 uM were
incubated at 18-20° C. with 0.01 EU/ml calf intestinal adenosine
deaminase in 10 mM sodium phosphate, pH 7.5. Deamination was monitored
spectrophotometrically at 265 nanometers (nm) and 250 nm, as described
The individual nucleosides, at concentrations from 5-200 uM in 10 mM sodium phosphate, pH 7.5, were incubated at 18-20 degrees C. with 0.01 EU/ml calf intestinal adenosine deaminase. The change in the optical density at 265 nm and 250 nm was monitored spectrophotometrically.

HIV in ATH8 cells = details: HIV-infected ATH8 cells; read-out: Concentration providing a 50 percent protection level against the cytopathic effect of HIV; cited from earlier work
[2] = system: deoxycytidine kinase deficient CEM T cells (clone AraC-8D); assay type: in vitro ADME, human
Description: ^1 Human CEM T cells, or variants deficient in either deoxycytidine
kinase, or deoxycytidine kinase plus adenosine kinase, were incubated at
density of 5 × 10^7 cells/ml in medium containing 3 uM [8^3
H2-chloro-2',3dideoxyadenosine. After 4 hours, the nucleotides in the
methanolsoluble extracts were determined after separation by HPLC, as
described in the Materials and Methods.
(§1) The human T lymphoblastoid cell line, CCRF-CEM, and mutants deficient in either deoxycytidine kinase (clone AraC-8D), or deoxycytidine kinase plus adenosine kinase (clone AraC-8DM10-5) were obtained and propagated as described previously [Foley et al., (1965) Cancer, 18:552-529 and Hershfield et al., (1982) J. Biol. Chem., 257:6380-6386]. For metabolic studies, the cells were cultured in RPMI 1640 medium supplemented with 2 mM L-glutamine and 10 percent fetal bovine serum at a density of 2×10^7 cells/ml in the presence of radiolabelled dideoxynucleosides, as indicated earlier. Some cultures were pre-incubatedfor 30 minutes either with 5 uM 2'-deoxycoformycin or 50 uM coformycin. After 4 hours of incubation the cells were harvested by centrifugation.
The cell pellets were washed with Hank's balanced salt solution at 4 degrees C., and extracted with 1 ml 60 percent methanol/water at -20 degrees C. for 10 minutes. Initial studies included 2',3'-dideoxyadenosine5'-triphosphate as an internal recovery marker. The nucleotides were fractionated by high performance liquid chromatography on an Whatman Partisil-10 SAX column, applying a gradient of zero to 100 percent buffer B in buffer A. Buffer A was 7 mM potassium phosphate pH 3.4. Buffer B was 0.5 M potassium phosphate, pH 3.4, one M KCl. The flow rate was 1.5 ml/minute, 1 minute fractions were collected. Buffer A was used alone for the first ten fractions after which elution with Buffer B began and was continued through fraction thirty, after which the eluting buffer was completely Buffer B. The nucleoside was eluted by about fraction six. The monophosphate eluted between about fractions fifteen and eighteen, the diphosphate between about fractions twenty-seven and thirty-two, and the triphosphate eluted between about fractions fifty-one and about sixty-five.

in vitro = in vitro ADME, human; details: human, cem cell culture medium
Description: (§2) Under the same condition, only about 2 percent of [2',3'-^3 H]-2'3'-dideoxyadenosine remained in the medium after 4 hours culture.
(§3) ^1 Human CEM T lymphoblasts at a density of 2 × 10^7
(§4) cells/ml were incubated for 4 hours at 37 degrees C. with either 3 uM
(§5) [8^3 H2-chloro- 2',3dideoxyadenosine, or 2 uM [2',3^3
(§6) H2',3dideoxyadenosine or 2 uM [2',3^3 H2',3dideoxyinosine. Then the
(§7) dideoxynucleosides in the cultures were quantitated after separation by
(§8) HPLC. In these studies, the intracellular dideoxynucleotide content after
as §1
(§9) The radioactive compounds in the culture medium were fractionated by thin layer chromatography. Ten microliter (ul) aliquots of medium were spotted directly on cellulose plates and developed with 1 M ammonium acetate pH 7.4. […] The respective spots were cut out and radioactivity was determined by liquid scintillation spectrometry. The identities of the spots were also confirmed by cochromatography of the radioactive counts with authentic compounds on a C18 uBondapak column, that was eluted as described above.

uninfected ATH8 cells = details: normal, read-out: Dose required to reduce the viability by 50 percent; cited from earlier work
[3] = system: HIV in PHA-stimulated lymphocytes; assay: HIV-infected PHA-stimulated lymphocytes, antigen ELISA of supernate, positive cultures; assay type: cell-based; details: 10 uM, ten cultures, ELISA OD490
Description: The activities of 2-halo-2',3'-dideoxyadenosine (2-F-,2-Cl- or 2-Br-ddA) derivatives were compared to those of 2-fluoro- and 2-chloro-2',3'-dideoxyinosine (2-F- and 2-Cl-ddI) and 2',3-dideoxyadenosine (ddA) against HIV-infected, antigen ELISA assay described herein.
The PHA-stimulated lymphocytes were suspended in media containing cell-free HIV, and were incubated overnight (about 18 hours). The cells were thereafter pelleted resuspended in a growth medium as pharmacologically acceptable carrier containing one of the above compounds at a 10 uM concentration, or with no added compound as a control, and plated at 10^5 cells per microculture; the medium was also supplemented with interleukin-2. The release of virus into the supernate was measured by ELISA at 4, 8 and 12 days, post-inoculation. Each microculture plate also contained ten virus-free cultures that served as further controls. Ten cell cultures were used for each compound.
Cultures were scored positive if the optical density in the ELISA (OD490) was greater than two standard deviations above the readings for the virus-free cultures. This method is adapted from that of McDougal et al. (1985) J. Immunol. 135:3151.

CEM T lymphoblasts = assay: in vitro; assay type: in vitro ADME, human
Description: as §2, §3, §4, §5, §6, §7, §8, §1, §9

[4] = Deoxycytidine kinase deficient CEM, 3 uM, 4 hours

## Nc1ncnc2c1ncn2[C@H]1CC[C@@H](CO)O1 [2',3'-dideoxyadenosine, reference compound]
[1]; relative efficiency of deamination
  Relative Efficiency (ratio of Vmax/Km): 3.52
HIV in ATH8 cells
  EC50: 2700 nM
[2]
  2',3'-dideoxyadenosine uptake: 20-30 pmols/10^8 cells
In vitro
  remaining at 4 h, 2 µM: ~2%
Uninfected ATH8 cells
  CC50: > 500000 nM
[3]
  positive cultures on day 4: no positives
  positive cultures on day 8: 100%
  positive cultures on day 12: 100%

## Nc1nc(Cl)nc2c1ncn2[C@H]1CC[C@@H](CO)O1 [2-chloro-2',3'-dideoxyadenosine]
[1]
  Relative Efficiency (ratio of Vmax/Km): 0.04
[2]; [4]
  Nucleotide Formed, Diphosphate: 0.8 pmols/10^8 cells/4 hrs
  Nucleotide Formed, Monophosphate: 1.7 pmols/10^8 cells/4 hrs
  Nucleotide Formed, Triphosphate: 3.4 pmols/10^8 cells/4 hrs
[2]; deoxycytidine kinase deficient CEM variant, same culture conditions
  accumulated phosphates relative to wild type CEM cells: about 20%
CEM T lymphoblasts; Addition none, 4 hours, 37 degrees C., 2-3 uM
  Catabolism: 40 pmols/hr 10^8 cells
CEM T lymphoblasts; radiolabelled compound, medium of CEM cell cultures
  deamination by CEM cells: did not significantly deaminate

Reference: patent US4997926A, “Deaminase-stable anti-retroviral 2-halo-2',3'-dideoxy” (Scripps Clinic and Research Foundation, priority 1987, dated 1991)
